Source: patent publication US11092532B2, “Method and device for label-free, high throughput holographic screening and enumeration of tumor cells in blood” (Texas Tech University System, priority 2017, dated 2021)

How the values were obtained:
breast cancer cells MCF7 = assay: inline-DHM cytometry for drug response analysis; type: cell-based
Text: Briefly, as shown in FIG. 1A the in-line DHM arrangement consists of a laser, a spatial filter and collimator assembly, and an inverted optical microscope (IX-71, Olympus Inc.). A He—Ne laser (10 mW, λ, =0.6328 μm, Thorlabs) is used as a light source, operating in continuous wave (CW) mode. The laser beam is filtered and expanded by a spatial filter assembly consisting of a microscope objective (10×, NA=0.25; Thorlabs) and a pinhole (25 μm diameter). The expanded beam is then collimated using a plano-convex lens (focal length, f=100 mm, Thorlabs). The diameter of the collimated beam is approximately 5 mm. This collimated beam of laser light illuminates cells or beads flowing in the microfluidic channel. The flow through the channel is generated by a syringe pump (KD Scientific). The cross-sectional dimensions of the channel are 1000(y)×350(z) μm^2. The 2D hologram of cells or beads is generated in the focal plane of the microscope objective (M=10×, NA=0.25; Thorlabs) of the optical microscope. The magnified image of the hologram is recorded on a CMOS camera (Phantom v310, Vision Research) at a resolution of 512×512 (20 μm/pixel) and 12-bit gray level quantization.
The recoded holograms were transferred to a computer for numerical reconstruction and data analysis.
The probability distribution corresponding to maximum intensity (Imax) of center pixel of focused image of breast cancer cells (MCF7) at different doses of doxorubicin (FIG. 9A) 0.0 μM, (FIG. 9B) 0.0001 μM, (FIG. 9C) 0.01 μM, and (FIG. 9D) 0.1 μM.

[1] = test system: breast cancer cell line MCF-7; assay: dose-dependent cytotoxicity, viability analysis using standard epifluorescence microscopy; type: cell-based; details: FIG. 8B
Text: The method involves using a microfluidic device with multiple inlets to flow different samples adjacent to each other as shown in FIG. 8A. Since the flow is laminar, there is no mixing and identity of each sample is encoded spatially into the microfluidic device. Integrating DHM into this multi-inlet device, the inventors can capture holograms where each hologram contains information of the multiple samples that are spatially segregated. […] FIG. 8A is an image showing a multiple entry microfluidic device for parallel loading of multiple samples. Red arrows indicate the recording window for DHM cytometry for drug response analysis. […] For example, in drug screening there is a need to conduct dose response analysis where different drug concentrations are used to test their impact on the viability of cells (see FIG. 8B for viability analysis using standard fluorescence imaging). To achieve parallel analysis, cells treated with different doses of drug can be introduced into the multi-inlet device and label-free DHM can be used to obtain dose-response curves. Cell culture and drug treatment can also be conducted in the inlet wells of the device or additional microfluidic devices can be daisy-chained prior to DHM interrogation.

## COc1cccc2c1C(=O)c1c(O)c3c(c(O)c1C2=O)C[C@@](O)(C(=O)CO)C[C@@H]3O[C@H]1C[C@H](N)[C@H](O)[C@H](C)O1 [doxorubicin]
Breast cancer cells MCF7; MCF-7 cells treated with 0.0001 μM doxorubicin, FIG. 9B
  maximum intensity (Imax) distribution of focused cell image: some are affected and their peak intensity shifts to lower values
Breast cancer cells MCF7; MCF-7 cells treated with 0.01 μM doxorubicin, FIG. 9C
  maximum intensity (Imax) distribution of focused cell image: the number of cells showing lower intensity (Imax) increases
Breast cancer cells MCF7; MCF-7 cells treated with 0.1 μM doxorubicin, FIG. 9D
  maximum intensity (Imax) distribution of focused cell image: the number of cells showing lower intensity (Imax) increases
[1]
  cytotoxicity (viability of cells): dose-dependent cytotoxicity
